Measured values taken from ChEMBL document CHEMBL1201862, “PubChem BioAssay data set” (2004).
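Step 1: Grow cells in 96-well plates. Step 2: Expose to compound for 48 hours at 5 concentrations. Step 3: Interpolate endpoints linearly; if unreached, use highest concentration. Abbreviation: GI50, concentration required for 50% inhibition of growth.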 Calls of active or inactive are those of the source. Rule as the data show it: active = GI50 up to about 1.1 µM and inactive = higher.

Experiments:
Experiment in all cases: growth of human tumour cells (NCI), 48 h
SR = test system: SR
HT-29 = test system: HT-29
OVCAR-8 = test system: OVCAR-8
Malme-3M = test system: Malme-3M
OVCAR-4 = test system: OVCAR-4
786-0 = test system: 786-0
IGROV-1 = test system: IGROV-1
A549 = test system: A549
EKVX = test system: EKVX
TK-10 = test system: TK-10
MDA-N = test system: MDA-N
HCC 2998 = test system: HCC 2998
A498 = test system: A498
UO-31 = test system: UO-31
U-251 = test system: U-251
K562 = test system: K562
SK-MEL-2 = test system: SK-MEL-2
SK-OV-3 = test system: SK-OV-3
HCT-116 = test system: HCT-116

Compound	GI50 (SR)	GI50 (HT-29)	GI50 (OVCAR-8)	GI50 (Malme-3M)	GI50 (OVCAR-4)	GI50 (786-0)	GI50 (IGROV-1)	GI50 (A549)	GI50 (EKVX)	GI50 (TK-10)	GI50 (MDA-N)	GI50 (HCC 2998)	GI50 (A498)	GI50 (UO-31)	GI50 (U-251)	GI50 (K562)	GI50 (SK-MEL-2)	GI50 (SK-OV-3)	GI50 (HCT-116)
O=C1CC(C(OCc2ccccc2)C(OCc2ccccc2)C(OCc2ccccc2)C(COCc2ccccc2)OCc2ccccc2)CC(=O)N1 (centres undefined)	> 100 µM (inactive)	> 100 µM (inactive)	> 100 µM (inactive)	> 100 µM (inactive)	> 100 µM (inactive)	> 100 µM (inactive)	> 100 µM (inactive)	> 100 µM (inactive)	> 100 µM (inactive)	> 100 µM (inactive)	> 100 µM (inactive)	> 100 µM (inactive)	> 100 µM (inactive)	60.1 µM (inactive)	79.8 µM (inactive)	> 100 µM (inactive)			
C[N+](C)(C)CC(=O)N/N=C(/Cc1cc(=O)oc2cc(O)ccc12)C(=O)Nc1ccc(Cl)cc1	> 100 µM (inactive)	> 100 µM (inactive)	> 100 µM (inactive)	> 100 µM (inactive)	> 100 µM (inactive)	> 100 µM (inactive)	> 100 µM (inactive)	> 100 µM (inactive)	> 100 µM (inactive)	> 100 µM (inactive)		> 100 µM (inactive)	> 100 µM (inactive)	> 100 µM (inactive)		> 100 µM (inactive)	> 100 µM (inactive)	> 100 µM (inactive)	> 100 µM (inactive)
CCc1cccc(C)c1N1C(=O)C(=O)C(c2nc3ccccc3o2)C(=O)C1=O	> 100 µM (inactive)	> 100 µM (inactive)	> 100 µM (inactive)	> 100 µM (inactive)	> 100 µM (inactive)	> 100 µM (inactive)	> 100 µM (inactive)	> 100 µM (inactive)	> 100 µM (inactive)	> 100 µM (inactive)		> 100 µM (inactive)	> 100 µM (inactive)	> 100 µM (inactive)	> 100 µM (inactive)	> 100 µM (inactive)	> 100 µM (inactive)	> 100 µM (inactive)	> 100 µM (inactive)
CN/N=C(\C)c1c(O)cc(C)oc1=O	> 100 µM (inactive)	> 100 µM (inactive)	> 100 µM (inactive)	> 100 µM (inactive)	> 100 µM (inactive)	> 100 µM (inactive)		> 100 µM (inactive)	> 100 µM (inactive)	> 100 µM (inactive)		> 100 µM (inactive)	> 100 µM (inactive)	> 100 µM (inactive)	> 100 µM (inactive)	> 100 µM (inactive)	> 100 µM (inactive)	> 100 µM (inactive)	> 100 µM (inactive)
Nc1ccc(C(=O)N/C(=C\c2cccc([N+](=O)[O-])c2)c2nc3ccccc3[nH]2)cc1	> 100 µM (inactive)	> 100 µM (inactive)	33.1 µM (inactive)	57.3 µM (inactive)	25.1 µM (inactive)	28.4 µM (inactive)	28.5 µM (inactive)	51.3 µM (inactive)	> 88.1 µM (inactive)	49 µM (inactive)		> 100 µM (inactive)	61.8 µM (inactive)	20.6 µM (inactive)	41.4 µM (inactive)	> 100 µM (inactive)	37.2 µM (inactive)	29.2 µM (inactive)	41.4 µM (inactive)
Cc1ccc(NC(=O)CC2SC(Nc3ccc(Cl)cc3)=NC2=O)cc1C (centres undefined)	6.59 µM (inactive)	18.2 µM (inactive)	18 µM (inactive)	18.5 µM (inactive)	20.2 µM (inactive)	17.8 µM (inactive)	> 46.3 µM (inactive)	18.2 µM (inactive)	17.5 µM (inactive)	17.3 µM (inactive)		18.6 µM (inactive)	23 µM (inactive)	18.6 µM (inactive)	18.5 µM (inactive)	3.75 µM (inactive)	12.7 µM (inactive)	> 49 µM (inactive)	18.1 µM (inactive)
CC1(C)O[C@@H](CC/C=C/CO)[C@H](CC/C=C/CO)O1	74.6 µM (inactive)	> 100 µM (inactive)	> 100 µM (inactive)	> 100 µM (inactive)	> 100 µM (inactive)	> 100 µM (inactive)	> 100 µM (inactive)	> 100 µM (inactive)	> 100 µM (inactive)	> 100 µM (inactive)		> 100 µM (inactive)	> 100 µM (inactive)		> 100 µM (inactive)	> 100 µM (inactive)	> 100 µM (inactive)	> 100 µM (inactive)	> 100 µM (inactive)
CCOC(=O)C1(C(=O)OCC)C[C@H](C)[C@](C)(O)C1	> 100 µM (inactive)	> 100 µM (inactive)	> 100 µM (inactive)	> 100 µM (inactive)	> 100 µM (inactive)	> 100 µM (inactive)	> 100 µM (inactive)	> 100 µM (inactive)	> 100 µM (inactive)	> 100 µM (inactive)	> 100 µM (inactive)		> 100 µM (inactive)	> 100 µM (inactive)	> 100 µM (inactive)	> 100 µM (inactive)	> 100 µM (inactive)	> 100 µM (inactive)	> 100 µM (inactive)
N#C/C(N)=N/c1ccccc1	> 100 µM (inactive)	> 100 µM (inactive)	> 100 µM (inactive)	> 100 µM (inactive)	> 100 µM (inactive)	> 100 µM (inactive)	> 100 µM (inactive)	> 100 µM (inactive)	> 100 µM (inactive)	> 100 µM (inactive)		> 100 µM (inactive)	> 100 µM (inactive)	> 100 µM (inactive)	> 100 µM (inactive)	71 µM (inactive)	> 100 µM (inactive)	> 100 µM (inactive)	> 100 µM (inactive)
O=C1C(=C2SC(c3ccccc3)(c3ccccc3)c3ccccc32)C(=O)c2ccccc21	65.2 µM (inactive)	> 100 µM (inactive)	> 100 µM (inactive)	> 100 µM (inactive)	> 100 µM (inactive)	> 100 µM (inactive)	> 100 µM (inactive)	> 100 µM (inactive)	> 100 µM (inactive)	> 100 µM (inactive)	> 100 µM (inactive)	> 100 µM (inactive)	> 100 µM (inactive)	> 100 µM (inactive)	> 100 µM (inactive)	> 100 µM (inactive)		> 100 µM (inactive)	> 100 µM (inactive)
CCCN/C(N)=N/C#N	25.1 µM (inactive)	30.8 µM (inactive)	> 100 µM (inactive)	> 100 µM (inactive)	37.1 µM (inactive)	25.3 µM (inactive)	> 100 µM (inactive)	> 100 µM (inactive)	> 100 µM (inactive)	> 100 µM (inactive)		> 100 µM (inactive)	67.6 µM (inactive)	> 100 µM (inactive)	46.7 µM (inactive)	60.3 µM (inactive)	> 100 µM (inactive)	> 100 µM (inactive)	67 µM (inactive)
COC(=O)C(=O)C1(CCC(C)=O)c2ccccc2-c2c(C)ccc(C)c21 (centres undefined)	19.2 µM (inactive)	32.7 µM (inactive)	34.4 µM (inactive)	40.4 µM (inactive)	68.9 µM (inactive)	64 µM (inactive)	57.8 µM (inactive)	46.5 µM (inactive)	31.4 µM (inactive)	39.6 µM (inactive)		87.5 µM (inactive)	55.7 µM (inactive)	25.4 µM (inactive)	41.8 µM (inactive)	30.1 µM (inactive)	40.6 µM (inactive)	84.1 µM (inactive)	35.7 µM (inactive)
COc1cccc(C=O)c1C(=O)c1cc(O)ccc1O	0.457 µM (active)	> 49.2 µM (inactive)	20.3 µM (inactive)	20.4 µM (inactive)	18.3 µM (inactive)	> 100 µM (inactive)	> 44.2 µM (inactive)	> 100 µM (inactive)	18.5 µM (inactive)	29.6 µM (inactive)		> 100 µM (inactive)	> 44.9 µM (inactive)	18.5 µM (inactive)	> 100 µM (inactive)	> 10 µM (inactive)	> 100 µM (inactive)	> 100 µM (inactive)	20.1 µM (inactive)
CC12CC[C@H](O)C(C)(C)[C@H]1CC[C@](C)(O)C2COc1ccc2ccc(=O)oc2c1 (some centres undefined)	> 100 µM (inactive)	> 100 µM (inactive)	> 100 µM (inactive)	73.6 µM (inactive)	> 100 µM (inactive)	> 100 µM (inactive)	> 100 µM (inactive)	81.7 µM (inactive)	> 100 µM (inactive)	> 100 µM (inactive)		> 100 µM (inactive)	> 100 µM (inactive)	> 100 µM (inactive)	> 100 µM (inactive)	71 µM (inactive)	> 100 µM (inactive)	> 100 µM (inactive)	50.9 µM (inactive)
Cc1ccc(/C=C2\CCCc3ccccc3C2=O)cc1	13.9 µM (inactive)	3.18 µM (inactive)	22.4 µM (inactive)	8.95 µM (inactive)	25.9 µM (inactive)	18 µM (inactive)	7.14 µM (inactive)	5.86 µM (inactive)	12 µM (inactive)	25.1 µM (inactive)	1.86 µM (inactive)			29.6 µM (inactive)	17.4 µM (inactive)	12.2 µM (inactive)	2.38 µM (inactive)	13.2 µM (inactive)	13.7 µM (inactive)
